Laboratory results: article PMC3894558, “Chemical signatures and new drug targets for gametocytocidal drug development” (Scientific Reports, 2014)
Where two headings read alike, the source gives them in different places.

Test system: P. falciparum 3D7 gametocytes
Assay: alamarBlue gametocyte viability assay, strain 3D7
Type: cell-based, Plasmodium falciparum
Details: Malaria Box; for Max Resp: DMSO set at 0%, 100 nM epoxomicin set at -100%; for Curve Class / IC50: stages III-V 3D7 gametocytes; for IC50: 11 concentrations, 1:3 dilution; call rule not given here

SMILES: COc1cc(OC)c(N(C)C(=O)c2cc3c(s2)-c2ccccc2S(=O)(=O)C3)cc1Cl [MMV006427]
- Max Resp: -74%
- Curve Class: -2.2
- IC50 (read-out: IC50): 11.8 µM

SMILES: Cc1cc(NC(=O)C2c3ccccc3C(=O)N(CC(C)C)C2c2cccs2)no1 (stereo not drawn) [MMV006429]
- Max Resp: -82%
- Curve Class: -1.1
- IC50 (read-out: IC50): 3.32 µM

SMILES: CCCN(CCC)CC(O)COc1ccccc1C(=O)Nc1ccccc1 (stereo not drawn) [MMV006455]
- Max Resp: -40%
- Curve Class: -1.2
- IC50 (read-out: IC50): 0.743 µM

SMILES: CCOC(=O)c1ccc2[nH]c(-c3ccccc3)cc(=O)c2c1 [MMV006457]
- Max Resp: 14%
- Curve Class: 4
- IC50: Inactive

SMILES: c1ccc2c(NCCc3c[nH]c4ccccc34)c3ccccc3nc2c1 [MMV006513]
- Max Resp: -85%
- Curve Class: -2.1
- IC50 (read-out: IC50): 16.6 µM

SMILES: CCOc1ccc2nc(C)cc(Nc3ccc(Br)cc3)c2c1 [MMV006522]
- Max Resp: -59%
- Curve Class: -2.2
- IC50 (read-out: IC50): 29.6 µM

SMILES: Cc1cc(C)c2c(c1)OCN(Cc1ccccc1Cl)C2 [MMV006558]
- Max Resp: -44%
- Curve Class: -1.2
- IC50 (read-out: IC50): 0.935 µM

SMILES: Clc1ccc2[nH]c3c(NCCCN4CCOCC4)ncnc3c2c1 [MMV006587]
- Max Resp: -49%
- Curve Class: -2.2
- IC50: Inactive

SMILES: CCOC(=O)C1=CN(C)C=C(C(=O)OCC)C1c1cc(Br)c(OCC)c(OC)c1 [MMV006656]
- Max Resp: -72%
- Curve Class: -2.2
- IC50 (read-out: IC50): 14.8 µM

SMILES: CN(C)CCNc1cc(-c2ccccc2)nc2ccccc12 [MMV006704]
- Max Resp: -79%
- Curve Class: -2.2
- IC50 (read-out: IC50): 29.6 µM

SMILES: Cc1cc(N2CCN(C3CCCC3)CC2)n2c(nc3ccccc32)c1C#N [MMV006706]
- Max Resp: -18%
- Curve Class: 4
- IC50: Inactive

SMILES: Cc1cc(=O)oc2c1ccc1oc(C(=O)c3ccccc3)c(C)c12 [MMV006753]
- Max Resp: 3%
- Curve Class: 4
- IC50: Inactive

SMILES: CCOc1c(Br)cc(C2C(C(=O)OC)=CN(C)C=C2C(=O)OC)cc1OC [MMV006764]
- Max Resp: -76%
- Curve Class: -2.2
- IC50 (read-out: IC50): 14.8 µM

SMILES: COc1cc2cc(C(=O)Nc3ccccc3)c(N)nc2cc1OC [MMV006767]
- Max Resp: -53%
- Curve Class: -2.2
- IC50 (read-out: IC50): 37.2 µM

SMILES: CC(C)CCNCC(O)Cn1c2ccccc2c2ccccc21.Cl (stereo not drawn) [MMV006787]
- Max Resp: -94%
- Curve Class: -1.1
- IC50 (read-out: IC50): 2.64 µM

SMILES: CCCCc1c(C)nc2c(OC)cccc2c1O [MMV006820]
- Max Resp: 24%
- Curve Class: 4
- IC50: Inactive

SMILES: COc1ccc(Nc2cc(C)nc(NCc3ccccc3)n2)cc1 [MMV006825]
- Max Resp: -74%
- Curve Class: -2.2
- IC50 (read-out: IC50): 23.5 µM

SMILES: c1ccc2cc3c(Nc4ccc(N5CCOCC5)cc4)ccnc3cc2c1 [MMV006861]
- Max Resp: -63%
- Curve Class: -2.2
- IC50 (read-out: IC50): 18.7 µM

SMILES: CCOC(=O)c1cnc2ccc(Cl)cc2c1NCCCN(C)C [MMV006882]
- Max Resp: -43%
- Curve Class: -2.2
- IC50: Inactive

SMILES: C=CCc1c(C)nc2ccccc2c1O [MMV006913]
- Max Resp: 0%
- Curve Class: 4
- IC50: Inactive

SMILES: O=C(Nc1ccc(-c2nc3cc(NC(=O)c4ccc(Cl)cc4)ccc3[nH]2)cc1)c1ccc(Cl)cc1 [MMV006962]
- Max Resp: -94%
- Curve Class: -2.1
- IC50 (read-out: IC50): 11.8 µM

SMILES: Cc1ccc2c(C)nc(Nc3nc(C)cc(-c4ccccc4)n3)nc2c1 [MMV007041]
- Max Resp: -50%
- Curve Class: -2.2
- IC50: Inactive

SMILES: CCOc1ccc(CN2CCN(CC(O)COc3ccc(OCC(O)CN4CCN(Cc5ccc(OCC)cc5)CC4)cc3)CC2)cc1 (stereo not drawn) [MMV007092]
- Max Resp: -94%
- Curve Class: -1.1
- IC50 (read-out: IC50): 7.43 µM

SMILES: c1ccc(/C2=N/c3ccccc3/N=C(/c3ccccc3)c3ccccc32)cc1 [MMV007113]
- Max Resp: -5%
- Curve Class: 4
- IC50: Inactive

SMILES: CCOC(=O)c1c[nH]c2ccc(CC)cc2c1=O [MMV007116]
- Max Resp: 32%
- Curve Class: 4
- IC50: Inactive

SMILES: Cc1ccc(N2C3c4ccccc4N(S(=O)(=O)c4ccc(C)cc4)C2c2ccccc2N3S(=O)(=O)c2ccc(C)cc2)cc1 [MMV007160]
- Max Resp: -3%
- Curve Class: 4
- IC50: Inactive

SMILES: Cc1cc(Nc2ccc(OCc3ccccc3)cc2)nc2cc(O)ccc12 [MMV007181]
- Max Resp: -30%
- Curve Class: -1.2
- IC50 (read-out: IC50): 0.59 µM

SMILES: COc1ccccc1N1C(=N)SC(=Cc2ccc(OCc3ccccc3F)cc2)C1=O [MMV007199]
- Max Resp: -2%
- Curve Class: 4
- IC50: Inactive

SMILES: COc1ccc(OC)c(C2C3=C(CC(C)(C)CC3=O)N(c3ccc(Cl)c(Cl)c3)C3=C2C(=O)CC(C)(C)C3)c1 [MMV007208]
- Max Resp: -28%
- Curve Class: 4
- IC50: Inactive

SMILES: Brc1ccc(Nc2nc3ccccc3nc2Nc2ccc(Br)cc2)cc1 [MMV007224]
- Max Resp: -96%
- Curve Class: -2.1
- IC50 (read-out: IC50): 20.9 µM

SMILES: Cc1cccc(N2C(=O)C3C(C2=O)C2(c4ccccc4)C(=O)C3(c3ccccc3)C(c3ccc4c(c3)OCO4)=C2c2ccc3c(c2)OCO3)c1 (stereo not drawn) [MMV007228]
- Max Resp: -1%
- Curve Class: 4
- IC50: Inactive

SMILES: COc1cc(-c2nc(-c3ccc(Sc4ccccc4)cc3)c(-c3ccccc3)[nH]2)cc(OC)c1O [MMV007273]
- Max Resp: -62%
- Curve Class: -2.2
- IC50 (read-out: IC50): 29.6 µM

SMILES: Cc1ccc(F)cc1NC(=O)c1cc(Cl)ccc1Nc1ccccc1 [MMV007275]
- Max Resp: -41%
- Curve Class: -2.2
- IC50: Inactive

SMILES: CCOc1ccc(Nc2ccnc3cc(Cl)ccc23)cc1 [MMV007285]
- Max Resp: -38%
- Curve Class: -1.2
- IC50 (read-out: IC50): 5.26 µM

SMILES: Clc1ccc2c(N3CCCC3)ccnc2c1 [MMV007363]
- Max Resp: -75%
- Curve Class: -2.2
- IC50 (read-out: IC50): 23.5 µM

SMILES: CCc1ccc(Nc2cc(C)nc3nc(C)nn23)cc1 [MMV007374]
- Max Resp: -9%
- Curve Class: 4
- IC50: Inactive

SMILES: COc1ccc(-c2nc3cc(Cc4ccc5[nH]c(-c6ccc(OC)cc6)nc5c4)ccc3[nH]2)cc1 [MMV007384]
- Max Resp: -59%
- Curve Class: -2.2
- IC50 (read-out: IC50): 37.2 µM

SMILES: Cc1ccccc1OCCSc1nc2ccc(NC(=O)c3cccs3)cc2s1 [MMV007396]
- Max Resp: 23%
- Curve Class: 4
- IC50: Inactive

SMILES: O=C(NCc1ccco1)C1CCN(S(=O)(=O)c2ccc(Br)cc2)CC1 [MMV007430]
- Max Resp: 29%
- Curve Class: 4
- IC50: Inactive

SMILES: COc1cc2c3cc1Oc1c(OC)c(OC)cc4c1C(Cc1ccc(O)c(c1)Oc1ccc(cc1)CC3N(C)CC2)N(C)CC4.Cl (stereo not drawn) [MMV007474]
- Max Resp: -93%
- Curve Class: -1.1
- IC50 (read-out: IC50): 5.9 µM

SMILES: COc1ccc(CCNC(=O)c2cc(S(=O)(=O)N3CC(C)CC(C)C3)ccc2Sc2ccc(F)cc2)cc1OC (stereo not drawn) [MMV007557]
- Max Resp: -72%
- Curve Class: -2.2
- IC50 (read-out: IC50): 9.35 µM

SMILES: Cc1ccc(Cn2c(N3CCC(C(=O)NCc4cccs4)CC3)nc3ccccc32)cc1 [MMV007564]
- Max Resp: -54%
- Curve Class: -2.2
- IC50: Inactive

SMILES: Cc1ccc(CSCc2ccc(C(=O)NC3CC3)o2)cc1 [MMV007571]
- Max Resp: 6%
- Curve Class: 4
- IC50: Inactive

SMILES: O=C(Nc1ccc(C23CC4CC(CC(c5ccccc5)(C4)C2)C3)cc1)c1cccs1 [MMV007574]
- Max Resp: 12%
- Curve Class: 4
- IC50: Inactive

SMILES: Cc1ccccc1OCCSc1nc2ccc(NC(=O)c3ccccc3)cc2s1 [MMV007577]
- Max Resp: 18%
- Curve Class: 4
- IC50: Inactive

SMILES: COc1ccc(C(=O)C(CCC(CNC(C)(C)C)C(=O)c2ccc(OC)cc2)CNC(C)(C)C)cc1 (stereo not drawn) [MMV007591]
- Max Resp: -109%
- Curve Class: -1.1
- IC50 (read-out: IC50): 2.64 µM

SMILES: CC(=O)NCCc1nc2ccccc2n1Cc1ccc(C(C)C)cc1 [MMV007617]
- Max Resp: -70%
- Curve Class: -2.2
- IC50 (read-out: IC50): 23.5 µM

SMILES: Br.Cc1ccc(C)c(-c2csc(Nc3ccc(C)c(C)c3)n2)c1 [MMV007654]
- Max Resp: -3%
- Curve Class: 4
- IC50: Inactive

SMILES: CCCCCCOC(=O)C1=C(C)NC(=O)NC1c1ccccc1F (stereo not drawn) [MMV007686]
- Max Resp: -2%
- Curve Class: 4
- IC50: Inactive

SMILES: COc1ccc(C(C)=O)cc1N1C(=O)C2C(C1=O)C1(c3ccccc3)C(=O)C2(c2ccccc2)C(c2ccc(C)cc2)=C1c1ccc(C)cc1 (stereo not drawn) [MMV007695]
- Max Resp: 17%
- Curve Class: 4
- IC50: Inactive

SMILES: CCOc1ccccc1NC(=O)CN1CCN(C(=O)c2ccco2)CC1 [MMV007791]
- Max Resp: 1%
- Curve Class: 4
- IC50: Inactive

SMILES: COc1nc(Nc2ccc(C(C)C)cc2)nc(OC)n1 [MMV007808]
- Max Resp: -9%
- Curve Class: 4
- IC50: Inactive

SMILES: COc1ccc2c(c1)OC(O)(C(F)(F)C(F)(F)F)CC2=O (stereo not drawn) [MMV007839]
- Max Resp: -23%
- Curve Class: 4
- IC50: Inactive

SMILES: COc1ccc2nc(C)cc(Nc3ccc(Cl)cc3)c2c1 [MMV007875]
- Max Resp: -72%
- Curve Class: -2.2
- IC50 (read-out: IC50): 23.5 µM

SMILES: CCCCN(CCCC)S(=O)(=O)c1ccc(NC(=O)c2ccco2)cc1 [MMV007881]
- Max Resp: 15%
- Curve Class: 4
- IC50: Inactive

SMILES: CCCCOc1ccc(C(=O)Nc2cc(C)on2)cc1 [MMV007906]
- Max Resp: 12%
- Curve Class: 4
- IC50: Inactive

SMILES: Cc1ccc(Nc2nc(-c3ccccn3)cs2)cc1 [MMV007907]
- Max Resp: -73%
- Curve Class: -2.2
- IC50 (read-out: IC50): 7.43 µM

SMILES: O=c1nc(C=Cc2ccc(Cl)cc2)oc2ccccc12 [MMV007977]
- Max Resp: 25%
- Curve Class: 4
- IC50: Inactive
